# In a melting point compilation (Tetko et al.; mined from patent text by program, amines drawn as free bases though some values may be those of a salt):
row,SMILES,melting point [°C]
1,O=C1Nc2ccc(Cl)cc2C(c2ccccc2)=NC1OCCc1ccc(O)cc1 (stereo not given),222 to 230
2,C#CCCCCCCOC(c1ccccc1)(c1ccccc1)c1ccccc1,43 to 45
3,COc1ccnc(CSc2nc3c(C)c(OC(F)F)c(C)cc3[nH]2)c1OC,137 to 138
4,COC(=O)c1c(CC#N)ncn1C1CCCCO1 (stereo not given),82 to 83
5,CC(=O)OC1CSC(Oc2ccc(Cl)nc2)C(OC(C)=O)C1OC(C)=O (stereo not given),141
6,O=C(CN1C(=O)CC1SCc1ccccc1)NCCCCCCc1ccc(F)cc1F (stereo not given),65 to 66
7,Cc1ccc(N2Cc3ccccc3P2(=O)C(C)C)cc1 (stereo not given),135 to 137
8,CC(=CCOc1ccc(OC(C)(C)C(=O)O)cc1)c1ccc(-c2ccccc2)cc1,148 to 150
9,COc1cccc(OC)c1C(=O)P1(=O)Oc2ccccc2-c2ccccc21 (stereo not given),96 to 98
10,CC(C)(C)OC(=O)c1nc(-c2ccccc2)[nH]c1-c1ccccn1,211 to 213
11,CCCCCCCCCCCCS(=O)(=O)N1CCCSC1=C(Br)[N+](=O)[O-],70 to 71
12,Cc1ccc(NC(=O)Cc2ccc(OC(C)(C)C(=O)O)cc2)cc1,164
13,COCCOc1ccc(CCNC(=O)/C=C/c2cccs2)cc1S(N)(=O)=O,140
14,Cn1c(C(F)(F)F)cc(=O)n(-c2cc(OCCC3OCCCO3)c(Cl)cc2F)c1=O,128 to 130
15,CCCc1nc2ccc(C#N)cc2n1Cc1ccccc1Cl,124 to 126
16,Cc1nnc2n1-c1ccccc1C(c1ccccc1C(F)(F)F)OC2 (stereo not given),265 to 269
17,Fc1ccc(-c2c[nH]c([C@@H](NC3CCC3)C3CCCCC3)n2)cc1,170 to 172
18,Cc1cc2c(cc1N1CCOCC1)OC(=O)C2C (stereo not given),108 to 109
19,COc1ccc(Cc2cnc(N)nc2N)cc1OCCCNS(=O)(=O)c1ccc(NC(C)=O)cc1,96 to 98
20,O=C(OC1CCCCC1)c1ncn2c1[C@@H]1CCN1C(=O)c1c(Br)cccc1-2,203 to 204
21,COC(=O)c1ccc(NS(=O)(=O)c2ccc(Oc3cccc(Cl)c3C#N)cc2)cn1,153 to 155
22,CCCCn1nc(CCC)nc1Cc1ccc(-c2ccccc2-c2nnn[nH]2)nc1,164 to 166
23,CCc1nnc(-c2ccccc2)c(=O)n1N,164
24,Cc1cc(C)c2c(c1C)OC(C)(C)C2=O,99 to 101
25,N#Cc1cc([N+](=O)[O-])ccc1Oc1ccccc1,126

row,SMILES,melting point [°C]
1,CCOC(=O)CCc1cc2ccccc2c(-c2ccccc2)n1,109
2,Cc1cc(-c2[nH]nc3c2C(=O)c2c(NC(N)=O)cccc2-3)c(C)s1,> 280
3,COCCOCC(=O)Nc1ccnn1-c1c(Cl)cc(C(F)(F)F)cc1Cl,158 to 160
4,N#CCCNC(=O)c1cc(-c2cccc3nn(Cc4cccc(C(F)(F)F)c4)cc23)ccn1,166 to 167
5,CC1CC(C)CN(CCNc2ccnc3cc(Cl)ccc23)C1 (stereo not given),142 to 143
6,CCOC(=O)C(=CNC1CC1)C(=O)c1c(F)c(F)c(Br)c(F)c1F,167 to 168
7,NS(=O)(=O)c1cc2c(Cl)nccc2o1,192 to 194
8,CCN(CC)CCCNc1ncc2cc(-c3c(Cl)cccc3Cl)c(=N)n(C)c2n1,154 to 156
9,CNCc1nnc(-c2ccc3occ(-c4cccc(OC(F)(F)F)c4)c3c2)o1,65 to 66
10,CC(C)(c1ccncn1)C(O)(Cn1cncn1)c1ccc(F)cc1F (stereo not given),126 to 127
11,CCS(=O)(=O)Nc1cc(-n2ncc(=O)n(C)c2=O)c(F)cc1C#N,233
12,CC(NC(=O)C1(Cl)C(C)(C)C1(Cl)Cl)c1ccc(Cl)cc1 (stereo not given),138 to 139
13,CCCCCCCCCCCCCCCCCCS(=O)(=O)c1cc(C(=O)O)c([N+](=O)[O-])c(C(=O)O)c1,203 to 205
14,COc1cccc(CCc2c(CCNC(=O)CCCCC(=O)NCCc3ccc(N)cc3)ccc(OC)c2OC)c1,163 to 165
15,O=C(c1ccc2nonc2c1)N(CC(F)(F)F)C1CCOCC1,134 to 135
16,CC1(C)C=C(CCl)CS1(=O)=O,59 to 60
17,CCCC(=O)c1ccc2c(c1)C(C)C(=S)N2 (stereo not given),133 to 136
18,Nc1cccc(C(=O)Nn2cnnn2)c1,281
19,CC(C)n1cc(-c2ccc(F)cc2)c(-c2ccc(F)cc2)c1C(=O)O,212
20,c1ccc(CN2CCN(c3n[nH]c4c3Cc3ccccc3-4)CC2)cc1,256 to 258
21,Cc1cc(-n2cnn(Cc3ccc(F)cc3)c2=O)sc1C(=O)NCc1cccnc1,180 to 182
22,Cc1cc(-c2nnn[nH]2)cc2c(=O)c3cccnc3oc12,290 to 291
23,Cc1nc2scc(C)n2c(=O)c1CCN1CCC(c2noc3cc(F)ccc23)CC1,231
24,CCCCc1nn(-c2cc(N)ccc2Cl)c(=O)n1Cc1ccc(-c2ccccc2S(=O)(=O)NC(=O)OC(C)(C)C)cc1,185 to 188
25,ClCC1CN(Cc2ccccc2)CCN1Cc1ccccc1 (stereo not given),54 to 56

row,SMILES,melting point [°C]
1,Cc1sc2c(c1C)C(c1ccc(Cl)cc1)=NC(CC(=O)N1CCCCC1)c1nnc(C)n1-2 (stereo not given),260 to 262
2,CC(=O)OCCCn1cc(C2=C(c3ccccc3[N+](=O)[O-])C(=O)NC2=O)c2ccccc21,77 to 78
3,C/C(Cl)=C\C(=O)Nc1ccc(C)cc1,108 to 109
4,Cc1ccc(S(=O)(=O)NCl)cc1,201 to 206
5,N#Cc1c(N2CCCCC2)cc(-c2cccs2)c2c1C(=O)c1ccccc1-2,226 to 228
6,CNC(=O)c1ccc(-c2ccc3oc(C4CCN(C(=O)OC(C)C)CC4)nc3c2)cc1F,116 to 120
7,COC(=O)c1cc(O)nn1C1CCCCC1,195 to 196
8,Cc1nc(-n2c(C)ccc2C)nc(C)c1Br,64 to 65
9,Cc1cccc(CO)c1CNc1cc(C(=O)N(C)C)cc2c1nc(C)n2C,197 to 198
10,CCCCCCCCS(=O)(=O)C(Cc1ccc(OCCN2CCCCC2)cc1)C(=O)NO (stereo not given),69 to 70
11,Cc1nc(N2C[C@@H](O)CC2=O)sc1C(=O)NCc1ccccc1,203 to 204
12,Cc1cc(-c2nnn(C)n2)cc(C)c1OCCCn1cncn1,76 to 78
13,O=C1Nc2cccc(-c3cccc(NC(=O)c4ccc(S(=O)(=O)F)cc4)c3)c2/C1=C/c1ccc[nH]1,148 to 151
14,COc1c(F)c(F)cc(C(N)=O)c1F,130 to 133
15,Nc1cccc(Cc2nnn[nH]2)c1,140
16,O=c1oc2ccccc2c2ccc(O)c(O)c12,185 to 187
17,CC(C)(C)C(=O)Nc1ccc(F)cc1-c1ccc(Cl)c(Cl)c1,130 to 131
18,COc1ccc2nc3sc(C(=O)O)cn3c(=O)c2c1,247 to 248
19,COc1ccc(C2=NN(C3CCN(S(=O)(=O)N(C)C)CC3)C(=O)C(C)(C)C2)cc1OC,172 to 174
20,Nc1cc(N2CCOCC2)ccc1[N+](=O)[O-],177 to 178
21,O=C1OCCN1CCN1CCN(Cc2ccccc2)CC1,82 to 84
22,CS(=O)(=O)c1ccc(-c2cnn(CC(F)(F)F)c(=O)c2SCC(F)(F)F)cc1,155 to 158
23,O=C(NCCO)C1=CNc2cccnc2S1,192 to 195
24,O=C(NC1CC1c1ccccc1)C1Cc2ccccc2N1S(=O)(=O)c1ccc(-c2ccc(F)cc2)cc1 (stereo not given),80
25,Nc1ccc(C#Cc2ccc(N3CCN4CCC3CC4)nn2)cc1,182 to 183

row,SMILES,melting point [°C]
1,Cc1oc(-c2ccccc2)nc1COc1cc(CCl)on1,105 to 106
2,Cc1cncnc1Nc1ccc(C(=O)CC2CCN(Cc3ccccc3)CC2)cc1,211 to 213
3,O=C(O)CCCCCc1oc(-n2cnc3ccccc32)nc1-c1ccc(Cl)cc1,158 to 159
4,CCCCCCCCN(CCCCCCCC)C(=O)Nc1ccccc1CCc1cc(C(C)(C)C)c(O)c(C(C)(C)C)c1,55 to 60
5,O=C(O)c1cc(S(=O)(=O)n2ccc3ccccc32)ccc1Br,189 to 191
6,O=C(Nc1cccc(Br)c1)NC1N=C(c2ccccc2F)c2ccccc2N(CC(=O)N2CC3CCC(CC3)C2)C1=O (racemic),173 to 186
7,O=COC[C@@H]1C(=O)N[C@H]1SC(c1ccccc1)(c1ccccc1)c1ccccc1 (relative stereo),143 to 144
8,COC(=O)CN1CCC[C@H](OCc2cc(C(F)(F)F)cc(C(F)(F)F)c2)[C@@H]1c1ccccc1 (relative stereo),60 to 70
9,NC(=O)COc1ccc([N+](=O)[O-])cc1,153 to 155
10,COc1ccc2cc(NC(C)=O)c3ccc(C)cc3c2c1OC,190 to 192
11,COc1cc2c(c3c1c(=O)c1cc4ccccc4cc1n3C)[C@H](OC(=O)N(C)C)[C@H](OC(=O)N(C)C)C(C)(C)O2,173
12,CNCc1ccc([C@H]2CC[C@@H](N(C)C(=O)c3ccc(Cl)cc3)CC2)cc1,110 to 112
13,CCn1cc(C(=O)O)c(=O)c2cc(F)c(N3CCN4CCC3CC4)c(F)c21,261 to 263
14,CCCC(=O)Nc1n[nH]c2cc(-c3ccc(F)cc3)ccc12,232
15,O=c1c2nc[nH]c2nc2n1CCN2Cc1ccc(Cl)cc1,314 to 316
16,S=c1cc(Oc2c(Cl)cccc2Cl)c2cc(Cl)ccc2s1,208 to 210
17,Cc1cccc(C(=O)Nc2c[nH]nc2C(=O)NCCC#N)c1,149 to 151
18,CCCc1nc(NCCOC(C)=O)nc(N2CCOCC2)n1,94 to 95
19,CC(C)Cc1cccc(CCCn2c(=O)c3c(N4CCN(C)CC4)cc(Cl)cc3n(Cc3ccccc3)c2=O)c1,56 to 62
20,O=C(CN1CCOCC1)Nc1ccn(-c2ccc(Cl)c(Cl)c2)n1,125 to 127
21,O=C(c1ccc(F)cc1)C1CCN(C(=O)Cc2ccc(OCc3ccccc3)cc2OCc2ccccc2)CC1,158 to 159
22,COC(=O)c1nc(C)ccc1OC,55 to 57
23,CS(=O)(=O)Nc1ccc(C(=O)CCC(=O)O)cc1,198 to 200
24,Cc1sc(C=O)cc1NC(=O)OCc1ccccc1,120
25,CCOc1ccccc1C(=O)Nc1ccc2oc(Nc3ccc(CC)cc3)nc2c1,182
